Numbers after ± are expanded uncertainties.
Work on `CCCCCC[n+]1ccn(C)c1.O=S(=O)([N-]S(=O)(=O)C(F)(F)F)C(F)(F)F` yielded a surface tension liquid-gas (283.17 K, Wilhelmy plate method) of 32.34 ± 0.09 mN/m, a surface tension liquid-gas (287.86 K, Wilhelmy plate method) of 32.07 ± 0.16 mN/m and a surface tension liquid-gas (293.15 K, Wilhelmy plate method) of 31.81 ± 0.06 mN/m. It also gave a surface tension liquid-gas (298.26 K, Wilhelmy plate method) of 31.59 ± 0.07 mN/m, a surface tension liquid-gas (303.16 K, Wilhelmy plate method) of 31.34 ± 0.07 mN/m and a surface tension liquid-gas (308.99 K, Wilhelmy plate method) of 30.99 ± 0.11 mN/m. It also gave a surface tension liquid-gas (314.39 K, Wilhelmy plate method) of 30.71 ± 0.06 mN/m, a surface tension liquid-gas (318.21 K, Wilhelmy plate method) of 30.48 ± 0.07 mN/m and a surface tension liquid-gas (323.09 K, Wilhelmy plate method) of 30.26 ± 0.09 mN/m. It also gave a surface tension liquid-gas (327.93 K, Wilhelmy plate method) of 30 ± 0.09 mN/m, a surface tension liquid-gas (333.53 K, Wilhelmy plate method) of 29.8 ± 0.13 mN/m and a surface tension liquid-gas (337.7 K, Wilhelmy plate method) of 29.45 ± 0.11 mN/m. For the same molecule, the surface tension liquid-gas (342.32 K, Wilhelmy plate method) was 29.28 ± 0.18 mN/m, the surface tension liquid-gas (347.3 K, Wilhelmy plate method) was 29.06 ± 0.13 mN/m and the surface tension liquid-gas (351.11 K, Wilhelmy plate method) was 28.91 ± 0.32 mN/m.

Work on `CCCC[n+]1ccn(C)c1.O=S(=O)([N-]S(=O)(=O)C(F)(F)F)C(F)(F)F` yielded a surface tension liquid-gas (284.15 K, Wilhelmy plate method) of 33.46 ± 0.11 mN/m, a surface tension liquid-gas (284.19 K, Ring tensiometer) of 33.48 ± 0.47 mN/m and a surface tension liquid-gas (287.81 K, Wilhelmy plate method) of 33.27 ± 0.11 mN/m. It also gave a surface tension liquid-gas (294.2 K, Wilhelmy plate method) of 33.02 ± 0.06 mN/m, a surface tension liquid-gas (298.35 K, Wilhelmy plate method) of 32.85 ± 0.06 mN/m and a surface tension liquid-gas (298.41 K, Ring tensiometer) of 33.04 ± 0.46 mN/m. It also gave a surface tension liquid-gas (301.96 K, Wilhelmy plate method) of 32.66 ± 0.07 mN/m, a surface tension liquid-gas (306.81 K, Wilhelmy plate method) of 32.44 ± 0.07 mN/m and a surface tension liquid-gas (310.81 K, Wilhelmy plate method) of 32.26 ± 0.07 mN/m. For the same molecule, the surface tension liquid-gas (317.93 K, Ring tensiometer) was 31.97 ± 0.45 mN/m, the surface tension liquid-gas (317.94 K, Wilhelmy plate method) was 31.97 ± 0.06 mN/m and the surface tension liquid-gas (322.99 K, Wilhelmy plate method) was 31.74 ± 0.04 mN/m. For the same molecule, the surface tension liquid-gas (327.92 K, Wilhelmy plate method) was 31.58 ± 0.07 mN/m, the surface tension liquid-gas (332.97 K, Wilhelmy plate method) was 31.3 ± 0.07 mN/m and the surface tension liquid-gas (337.12 K, Wilhelmy plate method) was 31.17 ± 0.22 mN/m. It also gave a surface tension liquid-gas (343.28 K, Wilhelmy plate method) of 30.91 ± 0.23 mN/m, a surface tension liquid-gas (347.82 K, Wilhelmy plate method) of 30.76 ± 0.15 mN/m and a surface tension liquid-gas (348.05 K, Ring tensiometer) of 30.41 ± 0.43 mN/m. It also gave a surface tension liquid-gas (351.56 K, Wilhelmy plate method) of 30.53 ± 0.13 mN/m.

`CCCCn1cc[n+](C)c1.F[B-](F)(F)F` [1-butyl-3-methylimidazolium tetrafluoroborate] showed a surface tension liquid-gas (284.17 K, Wilhelmy plate method) of 45.29 ± 0.07 mN/m, a surface tension liquid-gas (284.25 K, Ring tensiometer) of 45.44 ± 0.61 mN/m and a surface tension liquid-gas (288.28 K, Wilhelmy plate method) of 44.98 ± 0.13 mN/m. It also gave a surface tension liquid-gas (288.35 K, Ring tensiometer) of 45.15 ± 0.6 mN/m, a surface tension liquid-gas (293.32 K, Wilhelmy plate method) of 44.56 ± 0.11 mN/m and a surface tension liquid-gas (293.48 K, Ring tensiometer) of 44.57 ± 0.6 mN/m. It also gave a surface tension liquid-gas (298.48 K, Wilhelmy plate method) of 44.26 ± 0.1 mN/m, a surface tension liquid-gas (298.5 K, Ring tensiometer) of 44.41 ± 0.59 mN/m and a surface tension liquid-gas (303.41 K, Wilhelmy plate method) of 43.84 ± 0.1 mN/m. For the same molecule, the surface tension liquid-gas (303.51 K, Ring tensiometer) was 44.05 ± 0.59 mN/m, the surface tension liquid-gas (308.38 K, Wilhelmy plate method) was 43.68 ± 0.15 mN/m and the surface tension liquid-gas (308.42 K, Ring tensiometer) was 43.63 ± 0.59 mN/m. It also gave a surface tension liquid-gas (313.73 K, Ring tensiometer) of 43.21 ± 0.58 mN/m, a surface tension liquid-gas (313.79 K, Wilhelmy plate method) of 43.21 ± 0.2 mN/m and a surface tension liquid-gas (318.15 K, Wilhelmy plate method) of 43 ± 0.15 mN/m. It also gave a surface tension liquid-gas (318.19 K, Ring tensiometer) of 43.19 ± 0.58 mN/m, a surface tension liquid-gas (323.01 K, Ring tensiometer) of 42.84 ± 0.58 mN/m and a surface tension liquid-gas (323.03 K, Wilhelmy plate method) of 42.58 ± 0.33 mN/m. The surface tension liquid-gas (327.8 K, Wilhelmy plate method) was 42.46 ± 0.1 mN/m, the surface tension liquid-gas (327.9 K, Ring tensiometer) was 42.62 ± 0.57 mN/m and the surface tension liquid-gas (333.11 K, Wilhelmy plate method) was 42.15 ± 0.27 mN/m. The surface tension liquid-gas (333.12 K, Ring tensiometer) was 42.07 ± 0.57 mN/m, the surface tension liquid-gas (337.64 K, Wilhelmy plate method) was 41.96 ± 0.1 mN/m and the surface tension liquid-gas (337.65 K, Ring tensiometer) was 41.78 ± 0.56 mN/m. It also gave a surface tension liquid-gas (342.32 K, Ring tensiometer) of 41.71 ± 0.56 mN/m, a surface tension liquid-gas (342.4 K, Wilhelmy plate method) of 41.56 ± 0.34 mN/m and a surface tension liquid-gas (348.62 K, Ring tensiometer) of 41.16 ± 0.56 mN/m. For the same molecule, the surface tension liquid-gas (348.74 K, Wilhelmy plate method) was 41.3 ± 0.19 mN/m, the surface tension liquid-gas (351.23 K, Wilhelmy plate method) was 40.89 ± 0.18 mN/m and the surface tension liquid-gas (351.44 K, Ring tensiometer) was 40.85 ± 0.56 mN/m.

With `CCn1cc[n+](C)c1.O=S(=O)([N-]S(=O)(=O)C(F)(F)F)C(F)(F)F` the surface tension liquid-gas (283.16 K, Wilhelmy plate method) was 36.78 ± 0.07 mN/m, the surface tension liquid-gas (283.2 K, Ring tensiometer) was 37.07 ± 0.51 mN/m and the surface tension liquid-gas (287.3 K, Wilhelmy plate method) was 36.58 ± 0.07 mN/m. It also gave a surface tension liquid-gas (292.6 K, Wilhelmy plate method) of 36.35 ± 0.06 mN/m, a surface tension liquid-gas (297.89 K, Wilhelmy plate method) of 36.13 ± 0.06 mN/m and a surface tension liquid-gas (297.95 K, Ring tensiometer) of 36.12 ± 0.64 mN/m. The surface tension liquid-gas (302.66 K, Wilhelmy plate method) was 35.88 ± 0.06 mN/m, the surface tension liquid-gas (308.82 K, Wilhelmy plate method) was 35.61 ± 0.06 mN/m and the surface tension liquid-gas (313.3 K, Wilhelmy plate method) was 35.36 ± 0.04 mN/m. The surface tension liquid-gas (317.77 K, Wilhelmy plate method) was 35.14 ± 0.07 mN/m, the surface tension liquid-gas (323.16 K, Ring tensiometer) was 34.81 ± 0.48 mN/m and the surface tension liquid-gas (323.19 K, Wilhelmy plate method) was 34.84 ± 0.04 mN/m. For the same molecule, the surface tension liquid-gas (327.91 K, Wilhelmy plate method) was 34.66 ± 0.04 mN/m, the surface tension liquid-gas (327.97 K, Ring tensiometer) was 34.73 ± 0.48 mN/m and the surface tension liquid-gas (333.82 K, Wilhelmy plate method) was 34.29 ± 0.18 mN/m. It also gave a surface tension liquid-gas (333.86 K, Ring tensiometer) of 34.1 ± 0.47 mN/m, a surface tension liquid-gas (337.84 K, Wilhelmy plate method) of 34.06 ± 0.13 mN/m and a surface tension liquid-gas (337.88 K, Ring tensiometer) of 34.09 ± 0.47 mN/m. For the same molecule, the surface tension liquid-gas (343.6 K, Wilhelmy plate method) was 33.79 ± 0.23 mN/m, the surface tension liquid-gas (346.9 K, Ring tensiometer) was 33.74 ± 0.47 mN/m and the surface tension liquid-gas (346.93 K, Wilhelmy plate method) was 33.66 ± 0.16 mN/m. For the same molecule, the surface tension liquid-gas (351.54 K, Wilhelmy plate method) was 33.42 ± 0.18 mN/m and the surface tension liquid-gas (351.67 K, Ring tensiometer) was 33.2 ± 0.46 mN/m.

From the NIST ThermoML archive (doi:10.1016/j.jct.2009.09.007)
